Source: patent US11680062B2, “3,4-methylenedioxyphenylimidazolylethanonexime ether derivative, preparation method and use thereof, and drug for the treatment of Alzheimer's disease” (NORTHWEST A&F UNIVERSITY, priority 2021, dated 2023)
Like-named read-outs stand apart in the source and are kept apart here.

Experiments:
5×FAD transgenic mice [1] = assay: Elevated plus maze test (anxiety behavior); format: in vivo; settings: 5×FAD mice, 4 weeks
Experimental: (§1) The AD model mice used are 5×FAD transgenic mice, purchased from the Jackson Laboratory (JAX), USA. The transgenic mice have Swedish (K670N/M671L), Florida (I716V) and London (V717I) mutations in amyloid precursor protein (APP), and M146L and L286V mutations in PSEN1.
(§2) All mice were fed and watered ad libitum at 22±2° C. with a humidity of 50±10% and a 12 h light/dark cycle until 6 months old, then the experiment was started. All operations were in accordance with the guidelines of the National Health Administration and the guidelines for the use of laboratory animals. […]
The elevated plus maze is a recognized behavior test used for anxiety behavior assessment. […] The times of entries onto the open arm and the total times were recorded, and the anxiety behavior of the animal was evaluated by the proportion of entries onto the open arm.

BV-2 microglia [2] = settings: mouse
[3] = tested on: NO production in lipopolysaccharide-induced BV-2 microglia; assay: Inhibition of NO production in lipopolysaccharide-induced BV-2 microglia; format: cell-based; settings: Mus musculus
5×FAD transgenic mice [4] = assay: Barnes maze test (learning and memory ability); format: in vivo; settings: 5×FAD mice, 4 weeks
Experimental: as §1, §2
The Barnes maze test is widely used to assess spatial learning and memory abilities. […] When the cylinder was removed, light was given to allow the mice to explore the platform and find the escape box within 180 s, the time when the mice entered the escape box was recorded by a camera-based EthoVision system (Noldus) and recorded as the escape latency. […] The successful escape latency of mice was recorded and analyzed.

5×FAD transgenic mice [5] = assay: Marble burying test (anxiety behavior); format: in vivo; settings: 5×FAD mice, high dose 30 mg/kg/day intraperitoneal, 4 weeks
Experimental: as §1, §2
Each mouse was placed in a cage (28×18×12 cm) containing 20 clean marbles (1.5 cm in diameter), evenly distributed on the surface of clean wood chips (4 cm in depth). After 30 min, each mouse was removed from the cage and the number of marbles buried at least two-thirds was counted.

5×FAD transgenic mice [6] = assay: Y maze test (working memory ability); format: in vivo; settings: 5×FAD mice, 4 weeks
Experimental: as §1, §2
The Y maze test is a commonly used test method to assess working memory ability. […] The mice were placed in the center of the Y maze to explore the 3 arms freely for 5 min, all movements were recorded by a camera, and the spontaneous alternation ratio was calculated according to the situation of entering onto each arm.

BV-2 microglia [7] = assay: Cell viability corresponding to the NO production test
[8] = high dose 30 mg/kg/day intraperitoneal
[9] = low dose 15 mg/kg/day intraperitoneal
[10] = read-out: EC50 (inhibitory effect on the NO production)
[11] = read-out: EC50 (inhibition of NO production)

Compound | cell viability (BV-2 microglia [2]) [%] | EC50 [3, 10] [µM] | melting point [°C] | other results
C#CCO/N=C(\Cn1ccnc1)c1ccc2c(c1)OCO2 [I-1] | 92.5 | 2.07 ± 0.56 | – | proportion of entries onto the open arm (5×FAD transgenic mice [1]; [8]): significantly improved; proportion of entries onto the open arm (5×FAD transgenic mice [1]; [9]): significantly improved; successful escape latency vs 5×FAD-Vehicle group (5×FAD transgenic mice [4]; high dose 30 mg/kg/day intraperitoneal, day 3 and day 4): significantly reduced; successful escape latency vs 5×FAD-Vehicle group (5×FAD transgenic mice [4]; low dose 15 mg/kg/day intraperitoneal, day 4): significantly reduced; number of marbles buried (5×FAD transgenic mice [5]): significantly reduced; spontaneous alternation ratio (5×FAD transgenic mice [6]; [8]): significantly increased; spontaneous alternation ratio (5×FAD transgenic mice [6]; [9]): significantly increased
C=CCO/N=C(\Cn1ccnc1)c1ccc2c(c1)OCO2 [I-3] | 97.8 | 3.42 ± 0.64 | – | –
CC(C)=CCO/N=C(\Cn1ccnc1)c1ccc2c(c1)OCO2 [I-5] | 93.3 | 2.76 ± 0.34 | 154.3 to 154.9 | –
c1ccc(CO/N=C(\Cn2ccnc2)c2ccc3c(c2)OCO3)cc1 [I-6] | 97.8 | 4.43 ± 0.43 | 186.4 to 187.9 | –
FC(F)(F)c1ccc(CO/N=C(\Cn2ccnc2)c2ccc3c(c2)OCO3)cc1 [I-7] | 92.8 | 2.37 ± 0.17 | 121.8 to 122.7 | –
FC(F)(F)c1ccccc1CO/N=C(\Cn1ccnc1)c1ccc2c(c1)OCO2 [I-8] | 95.4 | 2.53 ± 0.47 | 156.3 to 157.5 | –
N#Cc1ccc(CO/N=C(\Cn2ccnc2)c2ccc3c(c2)OCO3)cc1 [I-9] | 91.6 | 4.24 ± 1.02 | – | –
C(=C\c1ccccc1)/CO/N=C(\Cn1ccnc1)c1ccc2c(c1)OCO2 [I-10] | 96.3 | > 20 | – | EC50 [3, 11]: > 20 µM
Clc1ccc(CO/N=C(\Cn2ccnc2)c2ccc(Cl)cc2Cl)c(Cl)c1 [oxiconazole] | – | – | – | cell viability (BV-2 microglia [7]): 96.2%
O=c1c(O)c(-c2ccc(O)c(O)c2)oc2cc(O)cc(O)c12 [quercetin, reference compound] | – | 9.56 ± 1.62 | – | cell viability (BV-2 microglia [7]): 94.3%; EC50 [3, 11]: 9.56 µM
